Laboratory results as given in patent US20110144374A1, “OXIME ETHER DERIVATIVE AND FUNGICIDE FOR AGRICULTURE AND HORTICULTURE” (Nippon Soda Co., Ltd., priority 2008, published 2011).

A melting point of 121 to 122 °C was found for `COC(=O)NOc1cc(/C(C)=N/OCc2ccccc2I)ccc1Cl` [Compound 11-9, N-{2-chloro-5-[1-(2-iodobenzyloxyimino)ethyl]phenoxy}methyl carbamate] in this work. A melting point of 82 to 85 °C was found for `COC(=O)NOc1cc(/C(C)=N/OCc2ccccc2C(F)(F)F)ccc1C` [Compound 21-24, N-{2-methyl-5-[1-(2-trifluoromethylbenzyloxyimino)ethyl]phenoxy}methyl carbamate] in this work. A melting point of 104 to 105 °C was found for `COC(=O)NOc1cc(/C(C)=N/OCc2cccc(F)c2C(F)(F)F)ccc1Cl` [Compound 1-13, N-(2-chloro-5-{1-[3-fluoro-2-(trifluoromethyl)benzyloxyimino]ethyl}phenoxy)methyl carbamate] in this work.
